Assay results: patent US11660326B2, “Bacterial-binding peptides for treatment of infectious diseases and related inflammatory processes” (priority 2018, dated 2023)

Tests used:
[1] = Solid phase binding assay (ELISA) of biotin-labeled peptides to immobilized LPS; design: species or system E. coli; conditions: biotin-labeled peptide 5-20 μg/mL; LPS 5 μg/mL coated
Method: (§1) FIG. 3. Binding of biotin-labeled CD6-derived peptides to immobilized PAMPs from Gram- and Gram+ origin. Increasing concentrations (5-20 μg/mL) of biotin-labeled CD6- (PD1, PD2, PD3 and cons), DMBT1- (pbs1), and CD5- (PD1) derived peptides were added to 96-well ELISA plates sensitized with E. coli 0111:B4 LPS (A) or S. aureus LTA (B) (5 μg/mL each in PBS). Following overnight incubation at 4° C. bound peptides or proteins were developed by addition of horseradish peroxidase (HRP)-labeled streptavidin and 3,3′,5,5′-tetramethylbenzidine (TMB) substrate and further readings at OD 405-620 nm. Results are expressed as mean±SD of duplicates from one representative experiment of three performed. Statistical analysis was performed by two-way ANOVA (*,P<0.05; **, P<0.01; ***, P<0.001).
(§2) Solid Phase Binding Assays. 96-well microtiter plates (Nunc, Roskilde, Denmark) were coated overnight at 4° C. with 5 μg/mL of purified LPS (E. coli 0111:B4, Sigma L2630) or LTA (S. aureus, Sigma L2515) in PBS, and then incubated for 2 h at room temperature in blocking solution (20 mM Tris-HCl pH 7.4 plus 0.05% Tween 20 and 1% BSA). Biotin-labeled peptides/proteins (2.5-20 μg/mL) were added and incubated overnight at 4° C. in blocking solution. After extensive washing, bound peptides/proteins were detected by the addition of horseradish peroxidase (HRP)-labeled streptavidin (1:5,000 dilution; DAKO) for 1 h at room temperature. Color was developed by adding 3,3′,5,5′-tetramethylbenzidine (TMB) liquid substrate (Sigma), and optical density read at 405-620 nm.

[2] = Solid phase binding assay (ELISA) of biotin-labeled peptides to immobilized LTA; design: species or system S. aureus; conditions: biotin-labeled peptide 5-20 μg/mL; LTA 5 μg/mL coated
Method: as §1, §2

[3] = Dynamic light scattering (DLS), hydrodynamic size of peptides in solution; assay type: physicochemical; conditions: 10 μg/mL in PBS, 25° C.
Method: FIG. 5. Analysis of the hydrodynamic size of CD6-derived peptides in solution. The dynamic light scattering (DLS) analysis of the hydrodynamic diameter of CD6 (PD1, PD2, PD3, and Pcons) and DMBT-1/SAG (pbs1) derived peptides (10 μg/mL) in PBS is shown. The y axis represents the relative intensity of the scattered light; the x axis denotes the hydrodynamic diameter of the particles present in the solution. One representative experiment of four performed is shown (left). The numeric values obtained for each peptide are also shown (right).
The hydrodynamic diameters of peptides (10 μg/mL in PBS) were measured at 25° C. in a Zetasizer Nano S from Malvern Instruments (Worcestershire, UK) equipped with a 633 nm HeNe laser, as described (Saenz A, et al., 2010, Fluidizing effects of C-reactive protein on lung surfactant membranes: protective role of surfactant protein A, FASEB J 24:3662-73). Four scans were recorded for each sample, and samples were analyzed in triplicate.

[4] = system: mice undergoing CLP-induced septic shock; assay: Mouse survival following CLP-induced septic shock; assay type: in vivo, C57BL/6J mice; conditions: single 6 mg/kg i.v. at +1 h post CLP; FIG. 7
Method: FIG. 7. Comparative therapeutic effects of i.v. infused CD6-derived peptides on mouse survival following Cecal Ligation and Puncture (CLP)-induced sepsis. (A, B) C57BL/6J mice were i.v. infused with saline (n=25) or single 6 mg/kg doses of unlabeled CD6- (PD1, n=8; PD2, n=16; PD3, n=15; Pcons, n=12) or DMBT1 (pbs1, n=13) derived peptides at +1 h post CLP induction. A sham group (n=3) was included. In all cases average percent survival was analyzed over time for each group and compared with the saline-treated group using the long-rank t-test (*, P<0.05; **, P<0.01; ***, P<0.001).
FIG. 8. Dose-, time- and via-dependent effects of CD6.PD3 infusion on mouse survival following CLP-induced sepsis. (A) C57BL/6 mice were i.v. infused at +1 h post CLP with saline (n=26) or single increasing doses (3 mg/kg, n=13; 6 mg/kg, n=15; and 12 mg/kg, n=8) of CD6.PD3 peptide. (B) C57BL/6 mice were i.v. infused with saline (n=4) or 6 mg/kg CD6.PD3 at different times post CLP (+1 h, n=5; +3 h, n=5; +6 h, n=6). (C) C57BL/6J mice were i.v. (n=11) or i.p. (n=9) infused with 6 mg/kg CD6.PD3 peptide or saline (n=9) at +1 h post CLP. In all cases, average percent of survival was analyzed over time and compared with the saline-treated group using a log-rank t-test (n.s., not significant; *, P<0.05. **, P<0.01; ***, P<0.001).
FIG. 10. Additive effects of combined administration of CD6.PD3 plus Imipenem/Cilastatin on mouse survival following CLP-induced sepsis. C57BL/6J mice were therapeutically infused at +1 h post CLP with saline (n=36), CD6.PD3 (6 mg/kg i.v.; n=25), Imipenem/Cilastatin (I/C, 50 mg/kg/12 h i.p.; n=9) or a combination of the two later (I/C+PD3, n=11). In all cases average percent survival was analyzed over time for each group and compared to the I/C plus CD6.PD3 group using the long-rank t-test (**, P<0.02; ***, P<0.002).
Animal procedures were approved by the Animal Experimentation Ethical Committee, University of Barcelona. High-grade mortality (≥90% mortality within the first 48-72 h) CLP-induced septic shock was induced in 8-10 week old C57BL/6J male mice (20-25 g; Charles River) as previously reported (Martinez-Florensa M, et al., 2017, Protective Effects of Human and Mouse Soluble Scavenger-Like CD6 Lymphocyte Receptor in a Lethal Model of Polymicrobial Sepsis, Antimicrob Agents Chemother 61:e01391-16).
Survival assays were analyzed by a Log-Rank χ^2 test using GraphPad Prism software. The significance of differences between experimental groups was determined by 2-tailed paired T test with 95% of confidence intervals (CI). P values were considered significant when P<0.05. Statistical analysis (mean±SEM) was performed using a 2-tailed Mann-Whitney test, with 95% of Cl.

[5] = system: mouse splenocytes exposed to LPS; assay: LPS-induced cytokine release by mouse splenocytes; assay type: cell-based, C57BL/6 mice; conditions: LPS 0.5 μg/mL, 48 h, peptide 0.5, 5 and 20 μg/mL
Method: FIG. 6. Effect of CD6-derived peptides on in vitro LIPS-induced cytokine release by mouse splenocytes. Total spleen cell suspensions (2×10^5) from C57BL/6 mice (n=7) were stimulated in triplicate for 48 h with LPS (0.5 μg/mL), in the presence or absence of increasing concentrations (0.5, 5, and 20 μg/mL) of CD6-derived peptides (PD1, PD2, PD3, and Pcons). Cytokine levels in culture supernatants were determined by ELISA and results expressed in pg/mL as mean±SD of triplicates. Viability was >75% at 48 h in all experimental conditions. Statistical analysis was performed using a 2-tailed Mann-Whitney test, with confidence intervals of 95% (*, P<0.05; **, P<0.01; ***, P<0.001).
Spleens from 6-8 week old C57BL/6 mice (Charles River) were disaggregated by filtering through a cell strainer and, after erythrocyte lysis, cells were resuspended in RPMI 1640 with L-glutamine (Lonza) plus 10% fetal calf serum (BioWest), 100 U/mL penicillin, 100 μg/mL streptomycin and 50 μM 2-(3 Mercaptoethanol (Merck). Cells (2×10^5) were stimulated for 48 h (at 37° C. in a humidified atmosphere with 5% CO2) in U-bottomed 96-well plates (Biofil) containing LPS (0.5 μg/mL; E. coli O111:B4), in the presence or absence of increasing peptides (0.5-20 μg/mL). Culture supernatants were harvested and mouse cytokines measured by ELISA following manufacturer's instructions (BD Biosciences OptEIA sets).

[6] = depending on the G− strain used; read-out: Kd of the LPS/Polymixin B interaction; cited from earlier work
[7] = Endotoxin adsorption on peptide/protein-coated Eupergit beads (LAL assay); conditions: 50 UI/mL LPS, 0-150 min, vs HSA- and rshCD5-coated controls
Method: FIG. 11. Endotoxin adsorption assays on immobilized CD6-derived peptides and proteins. Eupergit® beads coated with different CD6-derived peptides (PD2, PD3, and Pcons) (A) or proteins (rshCD5 and rshCD6) (B) were incubated for different periods of time (0, 30, 90 and 150 min) with a 50 UI/mL endotoxin solution. Limulus amoebocyte lysate activating activity (LAL activity) of supernatants was then monitored along time and the OD 405-620 nm represented. Beads coated with Human Serum Albumin (HSA) were used as negative controls. Shown are triplicates of a representative experiment from two independent performed. Statistical analysis was done by using the 2-tailed paired T test with 95% confidence interval (***, P<0.001).
Proteins or peptides (2.5 mg each) were immobilized via NH2 groups on macroporous acrylic EUPERGIT© beads (0.2 g; Röhm-Pharma GmbH, Germany) following a previously described protocol (Zimmermann M, et al., 1999, Endotoxin adsorbent based on immobilized human serum albumin. Clin Chem Lab Med 37:373-379). Peptide or protein-coated Eupergit® beads are obtained by incubation with stirring of the polymeric beads at room temperature with a solution of the peptides of the invention in sodium phosphate buffer 100 mM pH 8 for 24 hours. After incubation, the beads were washed 3 times with 3 M sodium chloride pH 7.0, 30 mM sodium phosphate buffer pH 4.0 and 30 mM sodium phosphate buffer pH 8.0. Finally, 154 mM sodium chloride solution pH 7.0 was added to the peptide or protein-coated beads.
LPS detection was performed by using the turbidimetric-kinetic Limulus Amebocyte Lysate (LAL) kit-QCL (50-650U, Lonza) following manufacturer's instructions. Protein/peptide-coated EUPERGIT® beads were incubated 1:1 (v:v) with the provided endotoxin solution (50 UI/mL) for different periods of time (0-150 min) at room temperature following manufacturer's instructions.

[8] = cited from earlier work
[9] = system: pro-inflammatory cytokine (IL-1β, IL-6, TNF-α) release; conditions: cited from earlier work
[10] = system: mouse models of septic shock; conditions: cited from earlier work

| Molecule | binding to immobilized LPS (ELISA) [1] | binding to immobilized LTA (ELISA) [2] | hydrodynamic size, first (or single) peak [3] [nm] | hydrodynamic size, second peak [3] [nm] | survival [4] [%] | further results |
| --- | --- | --- | --- | --- | --- | --- |
| GRVEVLYRGSW (DMBT-1.pbs1) [DMBT1.pbs1, reference compound] | dose-dependent binding | dose-dependent binding | 169±5 | 617±4 | 23.07 |  |
| GRVEVLFRGSW (CD6 Pcon) [CD6.cons, reference compound] | dose-dependent binding | dose-dependent binding | 1636±6 | 5493±7 | 25 | IL-1β release [5]: dose-dependent inhibitory effects; IL-6 release [5]: dose-dependent inhibitory effects; IL-10 release [5]: not |
| GQLEVYLKDGW (CD5.PD1) | no significant binding | no significant binding |  |  |  |  |
| Polymixin B |  |  |  |  |  | Kd [6]: 100 to 900 nM |
| rshCD6: recombinant soluble form of human CD6, SEQ ID NO.: 10 (protein, rshCD6) DQLNTSSAESELWEPGERLPVRLTNGSSSCSGTVEVRLEASWEPACGALWDSRAAEAVCRALGCGGAEAASQLAPPTPELPPPPAAGNTSVAANATLAGAPALLCSGAEWRLCEVVEHACRSDGRRARVTCAENRALRLVDGGGACAGRVEMLEHGEWGSVCDDTWDLEDAHVVCRQLGCGWAVQALPGLHFTPGRGPIHRDQVNCSGAEAYLWDCPGLPGQHYCGHKEDAGAVCSEHQSWRLTGGADRCEGQVEVHFRGVWNTVCDSEWYPSEAKVLCQSLGCGTAVERPKGLPHSLSGRMYYSCNGEELTLSNCSWRFNNSNLCSQSLAARVLCSASRSLHNLSTPEVPASVQTVTIESSVTVKIENKESR |  |  |  |  |  | endotoxin levels (LAL assay) [7]: reduced endotoxin levels; Kd affinities for bacterial PAMPs (LPS, LTA or PGN) [8]: in the nM range; pro-inflammatory cytokine (IL-1β, IL-6, TNF-α) release triggered by LPS or LTA/PGN [9]: down-modulates; lethal effects caused by LPS-induced septic shock ([10]; i.p. administration, mice (EP 2143436)): counteracts the lethal effects; serum levels of pro-inflammatory cytokines (IL-1β, IL-6 and TNF-α) ([10]; prophylactic infusion): significantly reduces; mortality ([10]; prophylactic infusion, endotoxin, whole bacteria and peritonitis models): significantly reduces mortality |
